pKd: −log10 of the molar value. Where two headings read alike, the source gives them in different places.
What was measured:
S100B = target: T1, S100B (Homo sapiens, UniProt P04271); assay: Pull-down assay with immobilized protein and LSM libraries; type: binding; details: 1:1 binding assumed, read-out: Surface mapping KD (apparent)
T1 construct: made in house; host or cells: Escherichia coli BL21(DE3)
T1 sequence (P04271 1-92): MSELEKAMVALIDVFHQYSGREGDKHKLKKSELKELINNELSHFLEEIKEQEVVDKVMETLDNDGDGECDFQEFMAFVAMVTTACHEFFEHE
Summary of the method: (§1)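 Buffers were HEPES pH 7.4 with 150 mM NaCl, plus 1 mM TCEP and 1 mM CaCl2 (50 mM HEPES) for S100A4 and S100B, 1 mM TCEP for Gal-1, and no additive for RecQ-WH. Immobilized protein at 64 µM was equilibrated 30 min with the LSM sublibrary, and unbound probes were measured by LC-MS.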

Gal-1 = target: T2, Gal-1 (Homo sapiens, UniProt P09382); assay: as above; type: binding; details: H12 library; 1:1 binding assumed; read-out: Surface mapping KD (apparent)
T2 construct: made in house; host or cells: E. coli BL21(DE3)
T2 sequence (P09382 whole entry): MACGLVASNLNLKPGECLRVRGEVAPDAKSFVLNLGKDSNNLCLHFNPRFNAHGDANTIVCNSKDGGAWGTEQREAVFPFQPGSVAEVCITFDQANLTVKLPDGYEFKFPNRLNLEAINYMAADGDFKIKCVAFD
Summary of the method: as §1

Row | Compound | pKd (S100B; H12 library) | pKd (Gal-1) | pKd (S100B; H14 library)
1 | CC[C@H](C)[C@@H](CC(=O)N[C@H]1CCC[C@@H]1C(=O)N[C@H]1CCC[C@@H]1C(N)=O)NC(=O)[C@H]1CCC[C@@H]1NC(=O)[C@H]1CCC[C@@H]1NC(=O)C[C@H](C)NC(=O)[C@H]1CCC[C@@H]1NC(=O)[C@H]1CCC[C@@H]1N [H12 AI] | 3.46 | 3.36 | 
2 | C[C@@H](CC(=O)N[C@H]1CCC[C@@H]1C(=O)N[C@H]1CCC[C@@H]1C(=O)N[C@@H](CCCCN)CC(=O)N[C@H]1CCC[C@@H]1C(=O)N[C@H]1CCC[C@@H]1C(N)=O)NC(=O)[C@H]1CCC[C@@H]1NC(=O)[C@H]1CCC[C@@H]1N [H12 AK] | 3.42 | 3.52 | 
3 | CC(C)C[C@@H](CC(=O)N[C@H]1CCC[C@@H]1C(=O)N[C@H]1CCC[C@@H]1C(N)=O)NC(=O)[C@H]1CCC[C@@H]1NC(=O)[C@H]1CCC[C@@H]1NC(=O)C[C@H](C)NC(=O)[C@H]1CCC[C@@H]1NC(=O)[C@H]1CCC[C@@H]1N [H12 AL] | 3.46 | 3.36 | 
4 | NC(=O)[C@H]1CCC[C@@H]1NC(=O)[C@H]1CCC[C@@H]1NC(=O)C[C@H](CC(=O)O)NC(=O)[C@H]1CCC[C@@H]1NC(=O)[C@H]1CCC[C@@H]1NC(=O)C[C@H](Cc1ccccc1)NC(=O)[C@H]1CCC[C@@H]1NC(=O)[C@H]1CCC[C@@H]1N [H12 FD] | 3.43 | 3.60 | 
5 | NC(=O)[C@H]1CCC[C@@H]1NC(=O)[C@H]1CCC[C@@H]1NC(=O)C[C@H](CCC(=O)O)NC(=O)[C@H]1CCC[C@@H]1NC(=O)[C@H]1CCC[C@@H]1NC(=O)C[C@H](Cc1ccccc1)NC(=O)[C@H]1CCC[C@@H]1NC(=O)[C@H]1CCC[C@@H]1N [H12 FE] | 3.41 | 3.70 | 
6 | CC[C@H](C)[C@@H](CC(=O)N[C@H]1CCC[C@@H]1C(=O)N[C@H]1CCC[C@@H]1C(=O)N[C@@H](CO)CC(=O)N[C@H]1CCC[C@@H]1C(=O)N[C@H]1CCC[C@@H]1C(N)=O)NC(=O)[C@H]1CCC[C@@H]1NC(=O)[C@H]1CCC[C@@H]1N [H12 IS] | 3.44 | 3.31 | 
7 | CC(C)C[C@@H](CC(=O)N[C@H]1CCC[C@@H]1C(=O)N[C@H]1CCC[C@@H]1C(=O)N[C@@H](CCC(N)=O)CC(=O)N[C@H]1CCC[C@@H]1C(=O)N[C@H]1CCC[C@@H]1C(N)=O)NC(=O)[C@H]1CCC[C@@H]1NC(=O)[C@H]1CCC[C@@H]1N [H12 LQ] | 3.46 | 3.35 | 
8 | CSCC[C@@H](CC(=O)N[C@H]1CCC[C@@H]1C(=O)N[C@H]1CCC[C@@H]1C(=O)N[C@@H](CC(=O)O)CC(=O)N[C@H]1CCC[C@@H]1C(=O)N[C@H]1CCC[C@@H]1C(N)=O)NC(=O)[C@H]1CCC[C@@H]1NC(=O)[C@H]1CCC[C@@H]1N [H12 MD] | 3.33 | 3.77 | 
9 | N=C(N)NCCC[C@@H](CC(=O)N[C@H]1CCCC[C@@H]1C(N)=O)NC(=O)[C@H]1CCCC[C@@H]1NC(=O)[C@H]1CCCC[C@@H]1NC(=O)C[C@H](CC(=O)O)NC(=O)[C@H]1CCCC[C@@H]1N [H14 DR] |  |  | 3.71
10 | NC(=O)[C@H]1CCCC[C@@H]1NC(=O)C[C@H](Cc1ccc(O)cc1)NC(=O)[C@H]1CCCC[C@@H]1NC(=O)[C@H]1CCCC[C@@H]1NC(=O)C[C@H](CC(=O)O)NC(=O)[C@H]1CCCC[C@@H]1N [H14 DY] |  |  | 3.34
11 | NCCCC[C@@H](CC(=O)N[C@H]1CCCC[C@@H]1C(N)=O)NC(=O)[C@H]1CCCC[C@@H]1NC(=O)[C@H]1CCCC[C@@H]1NC(=O)C[C@H](CCC(=O)O)NC(=O)[C@H]1CCCC[C@@H]1N [H14 EK] |  |  | 3.49
12 | N=C(N)NCCC[C@@H](CC(=O)N[C@H]1CCCC[C@@H]1C(N)=O)NC(=O)[C@H]1CCCC[C@@H]1NC(=O)[C@H]1CCCC[C@@H]1NC(=O)C[C@H](CCC(=O)O)NC(=O)[C@H]1CCCC[C@@H]1N [H14 ER] |  |  | 3.46
13 | NCCCC[C@@H](CC(=O)N[C@H]1CCCC[C@@H]1C(=O)N[C@H]1CCCC[C@@H]1C(=O)N[C@@H](CCC(=O)O)CC(=O)N[C@H]1CCCC[C@@H]1C(N)=O)NC(=O)[C@H]1CCCC[C@@H]1N [H14 KE] |  |  | 3.49

Further molecules by rising pKd (S100B; H12 library), results first:

Row | pKd (S100B; H12 library) | pKd (Gal-1) | pKd (S100B; H14 library) | Compound
14 | 3.50 | 3.37 |  | C[C@@H](CC(=O)N[C@H]1CCC[C@@H]1C(=O)N[C@H]1CCC[C@@H]1C(=O)N[C@H](CC(=O)N[C@H]1CCC[C@@H]1C(=O)N[C@H]1CCC[C@@H]1C(N)=O)Cc1ccc(O)cc1)NC(=O)[C@H]1CCC[C@@H]1NC(=O)[C@H]1CCC[C@@H]1N [H12 AY]
15 | 3.51 | 3.57 |  | NC(=O)[C@H]1CCC[C@@H]1NC(=O)[C@H]1CCC[C@@H]1NC(=O)C[C@H](CO)NC(=O)[C@H]1CCC[C@@H]1NC(=O)[C@H]1CCC[C@@H]1NC(=O)C[C@H](Cc1ccccc1)NC(=O)[C@H]1CCC[C@@H]1NC(=O)[C@H]1CCC[C@@H]1N [H12 FS]
16 | 3.52 | 3.53 |  | NCCCC[C@@H](CC(=O)N[C@H]1CCC[C@@H]1C(=O)N[C@H]1CCC[C@@H]1C(=O)N[C@@H](CCC(N)=O)CC(=O)N[C@H]1CCC[C@@H]1C(=O)N[C@H]1CCC[C@@H]1C(N)=O)NC(=O)[C@H]1CCC[C@@H]1NC(=O)[C@H]1CCC[C@@H]1N [H12 KQ]
17 | 3.53 | 3.36 |  | CC(C)C[C@@H](CC(=O)N[C@H]1CCC[C@@H]1C(=O)N[C@H]1CCC[C@@H]1C(=O)N[C@@H](C)CC(=O)N[C@H]1CCC[C@@H]1C(=O)N[C@H]1CCC[C@@H]1C(N)=O)NC(=O)[C@H]1CCC[C@@H]1NC(=O)[C@H]1CCC[C@@H]1N [H12 LA]
18 | 3.58 | 3.37 |  | CC(C)C[C@@H](CC(=O)N[C@H]1CCC[C@@H]1C(=O)N[C@H]1CCC[C@@H]1C(=O)N[C@@H](CC(N)=O)CC(=O)N[C@H]1CCC[C@@H]1C(=O)N[C@H]1CCC[C@@H]1C(N)=O)NC(=O)[C@H]1CCC[C@@H]1NC(=O)[C@H]1CCC[C@@H]1N [H12 LN]
19 | 3.60 | 3.33 |  | CC[C@H](C)[C@@H](CC(=O)N[C@H]1CCC[C@@H]1C(=O)N[C@H]1CCC[C@@H]1C(=O)N[C@@H](C)CC(=O)N[C@H]1CCC[C@@H]1C(=O)N[C@H]1CCC[C@@H]1C(N)=O)NC(=O)[C@H]1CCC[C@@H]1NC(=O)[C@H]1CCC[C@@H]1N [H12 IA]
20 | 3.65 | 3.53 |  | NCCCC[C@@H](CC(=O)N[C@H]1CCC[C@@H]1C(=O)N[C@H]1CCC[C@@H]1C(=O)N[C@@H](CO)CC(=O)N[C@H]1CCC[C@@H]1C(=O)N[C@H]1CCC[C@@H]1C(N)=O)NC(=O)[C@H]1CCC[C@@H]1NC(=O)[C@H]1CCC[C@@H]1N [H12 KS]
21 | 3.65 | 3.71 |  | CSCC[C@@H](CC(=O)N[C@H]1CCC[C@@H]1C(=O)N[C@H]1CCC[C@@H]1C(=O)N[C@@H](C)CC(=O)N[C@H]1CCC[C@@H]1C(=O)N[C@H]1CCC[C@@H]1C(N)=O)NC(=O)[C@H]1CCC[C@@H]1NC(=O)[C@H]1CCC[C@@H]1N [H12 MA]
22 | 3.71 | 3.66 |  | CC(C)[C@@H](CC(=O)N[C@H]1CCC[C@@H]1C(=O)N[C@H]1CCC[C@@H]1C(N)=O)NC(=O)[C@H]1CCC[C@@H]1NC(=O)[C@H]1CCC[C@@H]1NC(=O)C[C@H](CCCCN)NC(=O)[C@H]1CCC[C@@H]1NC(=O)[C@H]1CCC[C@@H]1N [H12 KV]
23 | 3.75 | 3.64 |  | NCCCC[C@@H](CC(=O)N[C@H]1CCC[C@@H]1C(=O)N[C@H]1CCC[C@@H]1C(N)=O)NC(=O)[C@H]1CCC[C@@H]1NC(=O)[C@H]1CCC[C@@H]1NC(=O)C[C@H](CCCCN)NC(=O)[C@H]1CCC[C@@H]1NC(=O)[C@H]1CCC[C@@H]1N [H12 KK]
24 | 3.82 | 3.55 |  | CSCC[C@@H](CC(=O)N[C@H]1CCC[C@@H]1C(=O)N[C@H]1CCC[C@@H]1C(N)=O)NC(=O)[C@H]1CCC[C@@H]1NC(=O)[C@H]1CCC[C@@H]1NC(=O)C[C@H](CCCCN)NC(=O)[C@H]1CCC[C@@H]1NC(=O)[C@H]1CCC[C@@H]1N [H12 KM]
25 | 3.83 | 3.54 |  | NCCCC[C@@H](CC(=O)N[C@H]1CCC[C@@H]1C(=O)N[C@H]1CCC[C@@H]1C(=O)N[C@@H](CC(=O)O)CC(=O)N[C@H]1CCC[C@@H]1C(=O)N[C@H]1CCC[C@@H]1C(N)=O)NC(=O)[C@H]1CCC[C@@H]1NC(=O)[C@H]1CCC[C@@H]1N [H12 KD]
26 | 3.86 | 3.64 |  | NCCCC[C@@H](CC(=O)N[C@H]1CCC[C@@H]1C(=O)N[C@H]1CCC[C@@H]1C(=O)N[C@H](CC(=O)N[C@H]1CCC[C@@H]1C(=O)N[C@H]1CCC[C@@H]1C(N)=O)Cc1ccc(O)cc1)NC(=O)[C@H]1CCC[C@@H]1NC(=O)[C@H]1CCC[C@@H]1N [H12 KY]
27 | 3.94 | 3.37 |  | C[C@@H](CC(=O)N[C@H]1CCC[C@@H]1C(=O)N[C@H]1CCC[C@@H]1C(=O)N[C@H](CC(=O)N[C@H]1CCC[C@@H]1C(=O)N[C@H]1CCC[C@@H]1C(N)=O)Cc1ccccc1)NC(=O)[C@H]1CCC[C@@H]1NC(=O)[C@H]1CCC[C@@H]1N [H12 AF]
28 | 3.96 | 3.65 |  | NC(=O)C[C@@H](CC(=O)N[C@H]1CCC[C@@H]1C(=O)N[C@H]1CCC[C@@H]1C(N)=O)NC(=O)[C@H]1CCC[C@@H]1NC(=O)[C@H]1CCC[C@@H]1NC(=O)C[C@H](Cc1ccccc1)NC(=O)[C@H]1CCC[C@@H]1NC(=O)[C@H]1CCC[C@@H]1N [H12 FN]
29 | 3.98 | 3.68 |  | NC(=O)CC[C@@H](CC(=O)N[C@H]1CCC[C@@H]1C(=O)N[C@H]1CCC[C@@H]1C(N)=O)NC(=O)[C@H]1CCC[C@@H]1NC(=O)[C@H]1CCC[C@@H]1NC(=O)C[C@H](Cc1ccccc1)NC(=O)[C@H]1CCC[C@@H]1NC(=O)[C@H]1CCC[C@@H]1N [H12 FQ]
30 | 4.07 | 3.60 |  | C[C@@H](O)[C@@H](CC(=O)N[C@H]1CCC[C@@H]1C(=O)N[C@H]1CCC[C@@H]1C(N)=O)NC(=O)[C@H]1CCC[C@@H]1NC(=O)[C@H]1CCC[C@@H]1NC(=O)C[C@H](Cc1ccccc1)NC(=O)[C@H]1CCC[C@@H]1NC(=O)[C@H]1CCC[C@@H]1N [H12 FT]

— article PMC8162404, “Proteomimetic surface fragments distinguish targets by function” (Chemical Science, 2020)
